According to patent publication US8129417B2, “Substituted octahydrocyclopenta[C]pyrrol-4-amines as calcium channel blockers” (Abbott Laboratories, priority 2008, dated 2012):
pIC50: −log10 of the molar value.

Target: human Cav2.2 (Homo sapiens, UniProt Q00975)
Experiment: Assessment of calcium channel activity using FLIPR (Ca2+ influx in IMR32 cells)
Format: cell-based
Conditions: 60 minute pre-incubation with compound, 2 μM nifedipine, depolarized with 80 mM KCl
Summary of the method: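 IMR32 neuroblastoma cells seeded at 1-1.2×10^5 cells/well and grown 48 h at 37 °C before FLIPR Ca2+ influx read. Percent inhibition at each concentration vs no-inhibitor activity; IC50 by non-linear sigmoidal dose-response fit.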

Chain of human Cav2.2 (Q00975 whole entry): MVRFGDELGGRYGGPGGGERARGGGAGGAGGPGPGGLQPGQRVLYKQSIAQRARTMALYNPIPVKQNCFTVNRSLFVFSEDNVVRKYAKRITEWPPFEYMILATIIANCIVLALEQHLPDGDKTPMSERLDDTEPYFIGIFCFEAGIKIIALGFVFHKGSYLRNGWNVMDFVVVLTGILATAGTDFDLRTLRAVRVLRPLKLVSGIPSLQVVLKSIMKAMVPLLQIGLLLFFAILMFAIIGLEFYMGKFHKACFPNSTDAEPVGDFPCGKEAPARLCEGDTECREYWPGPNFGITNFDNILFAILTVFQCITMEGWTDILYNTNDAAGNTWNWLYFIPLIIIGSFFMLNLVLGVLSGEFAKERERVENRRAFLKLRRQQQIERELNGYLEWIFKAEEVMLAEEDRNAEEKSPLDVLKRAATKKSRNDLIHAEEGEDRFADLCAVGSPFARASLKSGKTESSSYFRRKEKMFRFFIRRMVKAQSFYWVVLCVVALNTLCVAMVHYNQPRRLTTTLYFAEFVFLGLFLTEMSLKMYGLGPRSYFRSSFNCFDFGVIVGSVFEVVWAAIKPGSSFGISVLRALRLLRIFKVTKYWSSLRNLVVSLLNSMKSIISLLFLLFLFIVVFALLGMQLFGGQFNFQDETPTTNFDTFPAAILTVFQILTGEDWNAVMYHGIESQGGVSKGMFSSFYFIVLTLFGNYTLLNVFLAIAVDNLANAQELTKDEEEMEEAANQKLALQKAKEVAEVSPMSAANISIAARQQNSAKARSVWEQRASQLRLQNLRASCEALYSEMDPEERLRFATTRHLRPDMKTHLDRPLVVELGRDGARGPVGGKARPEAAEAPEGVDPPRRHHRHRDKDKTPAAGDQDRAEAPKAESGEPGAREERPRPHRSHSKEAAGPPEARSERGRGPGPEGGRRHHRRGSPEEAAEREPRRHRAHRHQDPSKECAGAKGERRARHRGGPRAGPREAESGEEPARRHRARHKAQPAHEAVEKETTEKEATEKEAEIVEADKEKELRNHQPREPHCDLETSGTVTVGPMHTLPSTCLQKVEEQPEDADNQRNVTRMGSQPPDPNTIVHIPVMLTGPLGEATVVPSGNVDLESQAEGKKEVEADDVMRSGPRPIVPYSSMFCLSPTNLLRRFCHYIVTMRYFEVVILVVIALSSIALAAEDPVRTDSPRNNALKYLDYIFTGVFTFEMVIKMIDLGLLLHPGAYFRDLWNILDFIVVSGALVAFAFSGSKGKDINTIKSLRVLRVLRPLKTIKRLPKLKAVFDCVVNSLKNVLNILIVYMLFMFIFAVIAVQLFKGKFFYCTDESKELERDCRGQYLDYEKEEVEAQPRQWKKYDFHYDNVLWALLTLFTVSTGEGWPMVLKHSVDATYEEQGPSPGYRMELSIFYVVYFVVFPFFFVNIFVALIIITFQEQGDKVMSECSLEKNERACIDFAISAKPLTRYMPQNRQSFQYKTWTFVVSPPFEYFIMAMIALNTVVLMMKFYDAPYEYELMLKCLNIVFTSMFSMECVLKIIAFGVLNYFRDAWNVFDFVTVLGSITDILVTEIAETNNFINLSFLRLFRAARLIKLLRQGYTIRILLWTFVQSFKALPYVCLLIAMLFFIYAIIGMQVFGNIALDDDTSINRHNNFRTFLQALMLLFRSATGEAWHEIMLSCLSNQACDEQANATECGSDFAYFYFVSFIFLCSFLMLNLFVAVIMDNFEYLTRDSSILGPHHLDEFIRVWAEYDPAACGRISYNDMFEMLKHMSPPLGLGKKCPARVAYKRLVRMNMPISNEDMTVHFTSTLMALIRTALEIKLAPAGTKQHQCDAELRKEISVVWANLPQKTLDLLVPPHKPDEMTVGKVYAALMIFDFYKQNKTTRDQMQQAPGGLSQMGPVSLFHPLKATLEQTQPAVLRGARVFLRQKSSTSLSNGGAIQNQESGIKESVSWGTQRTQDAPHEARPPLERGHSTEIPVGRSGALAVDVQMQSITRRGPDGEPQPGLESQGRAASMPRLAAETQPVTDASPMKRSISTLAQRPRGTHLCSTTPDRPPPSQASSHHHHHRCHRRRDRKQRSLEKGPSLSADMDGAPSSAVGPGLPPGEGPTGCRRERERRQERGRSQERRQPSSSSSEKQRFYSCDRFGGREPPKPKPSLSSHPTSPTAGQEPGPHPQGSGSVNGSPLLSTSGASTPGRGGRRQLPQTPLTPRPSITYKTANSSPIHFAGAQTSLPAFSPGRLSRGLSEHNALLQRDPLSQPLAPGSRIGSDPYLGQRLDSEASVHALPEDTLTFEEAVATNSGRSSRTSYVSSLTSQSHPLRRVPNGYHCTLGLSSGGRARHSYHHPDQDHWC
Chain of human Cav2.2 (P54289 25-946 partner limits assumed): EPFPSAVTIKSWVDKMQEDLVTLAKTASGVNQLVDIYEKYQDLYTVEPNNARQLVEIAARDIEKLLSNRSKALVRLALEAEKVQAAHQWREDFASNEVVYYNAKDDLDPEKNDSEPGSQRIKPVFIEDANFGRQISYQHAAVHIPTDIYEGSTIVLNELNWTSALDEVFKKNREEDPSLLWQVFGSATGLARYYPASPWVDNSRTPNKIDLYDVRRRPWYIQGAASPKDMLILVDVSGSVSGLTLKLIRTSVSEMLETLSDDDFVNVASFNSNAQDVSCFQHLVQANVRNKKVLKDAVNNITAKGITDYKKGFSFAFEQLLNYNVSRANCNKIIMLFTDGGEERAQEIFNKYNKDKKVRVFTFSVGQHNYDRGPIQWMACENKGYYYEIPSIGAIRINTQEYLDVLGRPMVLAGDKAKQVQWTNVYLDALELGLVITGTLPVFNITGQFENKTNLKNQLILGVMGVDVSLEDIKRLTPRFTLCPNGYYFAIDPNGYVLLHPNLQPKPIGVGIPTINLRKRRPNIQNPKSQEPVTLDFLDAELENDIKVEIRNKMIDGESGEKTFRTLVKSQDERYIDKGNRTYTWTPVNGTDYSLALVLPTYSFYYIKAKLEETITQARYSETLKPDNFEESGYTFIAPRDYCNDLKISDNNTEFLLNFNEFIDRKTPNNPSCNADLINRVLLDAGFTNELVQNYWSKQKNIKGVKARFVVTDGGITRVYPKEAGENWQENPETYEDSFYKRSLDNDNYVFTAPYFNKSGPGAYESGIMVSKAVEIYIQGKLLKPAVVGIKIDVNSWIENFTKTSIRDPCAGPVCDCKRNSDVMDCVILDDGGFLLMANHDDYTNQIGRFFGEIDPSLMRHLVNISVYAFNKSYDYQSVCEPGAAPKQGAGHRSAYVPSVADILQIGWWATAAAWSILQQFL
Chain of human Cav2.2 (P54289 947-1103 partner limits assumed): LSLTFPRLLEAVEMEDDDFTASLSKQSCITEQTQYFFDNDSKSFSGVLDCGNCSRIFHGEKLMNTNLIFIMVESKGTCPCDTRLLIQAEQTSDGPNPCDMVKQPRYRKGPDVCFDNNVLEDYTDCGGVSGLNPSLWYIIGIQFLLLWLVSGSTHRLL
Chain of human Cav2.2 (P54284 whole entry partner): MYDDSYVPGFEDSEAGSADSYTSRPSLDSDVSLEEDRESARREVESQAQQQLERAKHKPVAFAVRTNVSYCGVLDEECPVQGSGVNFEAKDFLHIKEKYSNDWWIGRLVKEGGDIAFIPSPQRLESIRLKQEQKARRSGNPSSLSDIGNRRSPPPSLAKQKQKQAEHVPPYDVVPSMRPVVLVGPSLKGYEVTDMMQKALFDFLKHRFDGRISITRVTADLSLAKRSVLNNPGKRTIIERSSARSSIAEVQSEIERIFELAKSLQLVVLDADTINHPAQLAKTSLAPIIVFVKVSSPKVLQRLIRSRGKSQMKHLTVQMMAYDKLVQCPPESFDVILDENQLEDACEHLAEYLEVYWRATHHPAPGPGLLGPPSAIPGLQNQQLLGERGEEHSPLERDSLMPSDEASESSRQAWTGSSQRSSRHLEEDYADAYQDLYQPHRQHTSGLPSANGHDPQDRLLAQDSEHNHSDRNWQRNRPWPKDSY

In order of falling pIC50:
1. CCC[C@H](NC(C)C)C(=O)N[C@H]1CC[C@@H]2CN(S(=O)(=O)c3cccc(C(F)(F)F)c3)C[C@@H]21 [Example 483, N^2-isopropyl-N^1-((3aR,4S,6aS)-2-{[3-(trifluoromethyl)phenyl]sulfonyl}octahydrocyclopenta[c]pyrrol-4-yl)-L-norvalinamide]  6.31
2. CC(C)(C)C[C@H](NCC1CC1)C(=O)N[C@H]1CC[C@@H]2CN(S(=O)(=O)c3ccc(C(F)(F)F)cc3)C[C@@H]21 [Example 471, N^2-(cyclopropylmethyl)-4-methyl-N^1-((3aR,4S,6aS)-2-{[4-(trifluoromethyl)phenyl]sulfonyl}octahydrocyclopenta[c]pyrrol-4-yl)-L-leucinamide]  6.19
3. CCCN[C@@H](CC(C)(C)C)C(=O)N[C@H]1CC[C@@H]2CN(S(=O)(=O)c3ccc(C(F)(F)F)cc3)C[C@@H]21 [Example 470, 4-methyl-N^2-propyl-N^1-((3aR,4S,6aS)-2-{[4-(trifluoromethyl)phenyl]sulfonyl}octahydrocyclopenta[c]pyrrol-4-yl)-L-leucinamide]  5.99
4. CC(C)(C)C[C@H](NCC1CCC1)C(=O)N[C@H]1CC[C@@H]2CN(S(=O)(=O)c3ccc(C(F)(F)F)cc3)C[C@@H]21 [Example 472, N^2-(cyclobutylmethyl)-4-methyl-N^1-((3aR,4S,6aS)-2-{[4-(trifluoromethyl)phenyl]sulfonyl}octahydrocyclopenta[c]pyrrol-4-yl)-L-leucinamide]  5.90
5. CCCCN[C@@H](CC(C)(C)C)C(=O)N[C@H]1CC[C@@H]2CN(S(=O)(=O)c3ccc(C(F)(F)F)cc3)C[C@@H]21 [Example 476, N^2-butyl-4-methyl-N^1-((3aR,4S,6aS)-2-{[4-(trifluoromethyl)phenyl]sulfonyl}octahydrocyclopenta[c]pyrrol-4-yl)-L-leucinamide]  5.88
6. CC(C)(C)C[C@H](NCC1CCCC1)C(=O)N[C@H]1CC[C@@H]2CN(S(=O)(=O)c3ccc(C(F)(F)F)cc3)C[C@@H]21 [Example 474, N^2-(cyclopentylmethyl)-4-methyl-N^1-((3aR,4S,6aS)-2-{[4-(trifluoromethyl)phenyl]sulfonyl}octahydrocyclopenta[c]pyrrol-4-yl)-L-leucinamide]  5.76
7. CC(C)(C)C[C@H](NCC1CCCCC1)C(=O)N[C@H]1CC[C@@H]2CN(S(=O)(=O)c3ccc(C(F)(F)F)cc3)C[C@@H]21 [Example 475, N^2-(cyclohexylmethyl)-4-methyl-N^1-((3aR,4S,6aS)-2-{[4-(trifluoromethyl)phenyl]sulfonyl}octahydrocyclopenta[c]pyrrol-4-yl)-L-leucinamide]  5.74
8. CCN[C@@H](CC(C)(C)C)C(=O)N[C@H]1CC[C@@H]2CN(S(=O)(=O)c3ccc(C(F)(F)F)cc3)C[C@@H]21 [Example 477, N^2-ethyl-4-methyl-N^1-((3aR,4S,6aS)-2-{[4-(trifluoromethyl)phenyl]sulfonyl}octahydrocyclopenta[c]pyrrol-4-yl)-L-leucinamide]  5.73
9. CCC[C@H](NC(C)C)C(=O)N[C@@H]1CC[C@H]2CN(S(=O)(=O)c3ccc(C(F)(F)F)cc3)C[C@H]21 [Example 482, N^2-isopropyl-N^1-((3aS,4R,6aR)-2-{[4-(trifluoromethyl)phenyl]sulfonyl}octahydrocyclopenta[c]pyrrol-4-yl)-L-norvalinamide]  5.71
10. CCC[C@H](NC(C)C)C(=O)N[C@H]1CC[C@@H]2CN(S(=O)(=O)c3ccc(C(F)(F)F)cc3)C[C@@H]21 [Example 481, N^2-isopropyl-N^1-((3aR,4S,6aS)-2-{[4-(trifluoromethyl)phenyl]sulfonyl}octahydrocyclopenta[c]pyrrol-4-yl)-L-norvalinamide]  5.64
11. CC(C)CN[C@@H](CC(C)(C)C)C(=O)N[C@H]1CC[C@@H]2CN(S(=O)(=O)c3ccc(C(F)(F)F)cc3)C[C@@H]21 [Example 473, N^2-isobutyl-4-methyl-N^1-((3aR,4S,6aS)-2-{[4-(trifluoromethyl)phenyl]sulfonyl}octahydrocyclopenta[c]pyrrol-4-yl)-L-leucinamide]  5.58
